Measured values as given in patent publication US6284879A, “Transport associated protein splice variants” (The General Hospital Corporation, priority 1998, dated 2001).
“Also recorded” adds a separate entry of the source.

What was measured:
[1] = tested on: T1 cells (naturally co-express both TAP2 and TAP2iso); details: in words
[2] = molecular target: T1, TAP1/TAP2iso heterodimer (Homo sapiens, UniProt Q03518+Q03519); experiment: competition with transport of 125I-Peptide RRYQNSTEL in TAP1/TAP2iso transfectants; format: cell-based; details: unlabeled competitor peptide; comparison in words
T1 construct: expressed in transfected cells
T1 sequence (Q03519 1-653 isoform Q03519-2 L359K/V379I): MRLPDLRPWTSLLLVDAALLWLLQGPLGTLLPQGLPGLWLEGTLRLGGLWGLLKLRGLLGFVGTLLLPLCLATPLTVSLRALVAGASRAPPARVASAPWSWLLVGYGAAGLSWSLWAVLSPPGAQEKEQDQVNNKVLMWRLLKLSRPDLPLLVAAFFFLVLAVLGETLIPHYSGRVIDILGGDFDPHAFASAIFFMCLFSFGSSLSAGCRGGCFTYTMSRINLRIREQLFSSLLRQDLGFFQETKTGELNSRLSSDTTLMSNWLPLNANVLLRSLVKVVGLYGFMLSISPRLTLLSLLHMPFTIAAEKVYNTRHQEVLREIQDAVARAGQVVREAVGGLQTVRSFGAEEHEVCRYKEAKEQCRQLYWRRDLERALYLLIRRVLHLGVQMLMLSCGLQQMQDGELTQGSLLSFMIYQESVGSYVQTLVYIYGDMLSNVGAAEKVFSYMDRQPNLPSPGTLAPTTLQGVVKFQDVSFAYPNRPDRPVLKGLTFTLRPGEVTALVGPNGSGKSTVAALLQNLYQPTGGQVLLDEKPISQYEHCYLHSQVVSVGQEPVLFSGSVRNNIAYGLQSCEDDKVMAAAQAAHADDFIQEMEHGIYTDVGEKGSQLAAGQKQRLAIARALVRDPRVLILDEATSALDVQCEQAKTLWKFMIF
T1 sequence (Q03518 1-748): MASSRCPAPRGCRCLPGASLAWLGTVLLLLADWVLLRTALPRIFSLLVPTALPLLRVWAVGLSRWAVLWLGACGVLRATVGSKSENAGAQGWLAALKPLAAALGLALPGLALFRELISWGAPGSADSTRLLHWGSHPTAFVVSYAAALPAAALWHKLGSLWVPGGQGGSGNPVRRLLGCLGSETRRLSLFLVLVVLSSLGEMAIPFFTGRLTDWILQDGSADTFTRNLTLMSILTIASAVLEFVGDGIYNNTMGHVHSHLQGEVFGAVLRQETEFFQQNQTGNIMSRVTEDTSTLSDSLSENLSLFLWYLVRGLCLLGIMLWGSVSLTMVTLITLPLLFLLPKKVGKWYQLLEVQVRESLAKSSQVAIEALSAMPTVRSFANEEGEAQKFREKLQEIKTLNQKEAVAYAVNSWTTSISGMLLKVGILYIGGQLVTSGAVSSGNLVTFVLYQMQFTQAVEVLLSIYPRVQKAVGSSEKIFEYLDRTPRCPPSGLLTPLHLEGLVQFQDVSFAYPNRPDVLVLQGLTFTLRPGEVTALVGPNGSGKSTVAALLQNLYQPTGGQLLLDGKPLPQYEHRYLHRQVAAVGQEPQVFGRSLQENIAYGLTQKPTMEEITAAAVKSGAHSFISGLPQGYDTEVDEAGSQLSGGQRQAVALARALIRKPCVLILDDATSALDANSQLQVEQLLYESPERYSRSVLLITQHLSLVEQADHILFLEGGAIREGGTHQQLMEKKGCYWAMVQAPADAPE
Method: (§1) Glycosylated ^125 I Peptide […] (SEQ ID NO: 6), Peptide […] (SEQ ID NO: 7), or Peptide […] (SEQ ID NO: 8) was recovered and measured. The peptide translocation assay was performed essentially as previously described (Neefjes et al., Science, 261:769 (1993); and Momburg et al., J. Exp. Med., 179:1613 (1994)). Briefly, 2.5-5.0×10^6 T2 cell (transfected or untransfected) were washed once with incubation buffer (130 mM KCl, 10 mM NaCl, 1 mM CaC2, 2 mM EDTA, 2 mM MgCl2, 5 mM Hepes, pH 7.3) and permeabilized for 10 minutes at 37° C. with streptolysin O (2 IU/ml) (Wellcome, Beckenham, UK) in 50 μl of incubation buffer. After further addition of 10 μl of 100 mM adenosine triphosphate, 10 μl of ^125 I-labeled peptide (~15 pM), and 30 μl of incubation buffer, cells were incubated for an additional 10 minutes at 37° C. Transport was terminated by the addition of 1 ml of 1% NP-40 detergent, after which nuclei were removed by centrifugation and glycosylated peptides were recovered using concanavalin A-Sepharose (Sigma, St. Louis, Mo.) and quantitated with a gamma counter (LKB-Wallac).
Differential peptide selectivity of the TAP1/TAP2 and TAP1/TAP2iso heterodimers was further investigated by competition experiments with ^125 I-labeled Peptide […] (SEQ ID NO: 6) and various unlabeled peptides: Peptide […] (SEQ ID NO: 6); Peptide […] (SEQ ID NO: 7); Peptide […] (SEQ ID NO: 8); Peptide […] (SEQ ID NO: 9), the S1-24 fragment of human adrenocorticotropic hormone); and Peptide […] (SEQ ID NO: 10), residues 22 to 30 (human insulin B chain). The iodinated 9-mer Peptide […] was translocated in the presence of different concentrations of unlabeled competition peptides. The glycosylated peptides were recovered by Con A-Sepharose and quantitated. […] (self); (6B) competition of ^125 I-Peptide […] with Peptide […]; (6C) competition of ^125 I-Peptide […] with Peptide […]; and (6D) competition of ^125 I-Peptide […] with Peptide […]; and (6E) competition of ^125 I-Peptide […] with Peptide […].

[3] = tested on: TAP1/TAP2iso heterodimer (compared with TAP1/TAP2); experiment: translocation of 125I-labeled peptides into the ER of permeabilized T2 transfectants; format: cell-based, human; details: 125I-labeled glycosylated peptide recovered from streptolysin O permeabilized T2 transfectants; comparison in words
Method: 10 mM stock solutions of peptides were prepared in dimethyl sulfoxide. Peptides (25 μg) were directly iodinated at unique tyrosine residues with the use of chloramine T (Sigma, St. Louis, Mo.), and free iodine was removed by gel filtration using Sephadex G 10 (Pharmacia) column chromatography.
as §1

| Sequence | transportation of test peptides (relative IC50) [1] | inhibition of transport of 125I-Peptide RRYQNSTEL, TAP1/TAP2iso compared with TAP1/TAP2 transfectants [2] | amount of translocated peptide, TAP1/TAP2iso compared with TAP1/TAP2 [3] |
| --- | --- | --- | --- |
| IYLGPFSPNVTL [Peptide IYLGPFSPNVTL] | equal efficiency | markedly greater extent in TAP1/TAP2iso transfectants | transported to a greater extent by TAP/TAP2iso; also recorded: four times more efficiently by the TAP1/TAP2iso heterodimer |
| RGFFYTPKA [Peptide RGFFYTPKA, residues 22 to 30 (human insulin B chain)] |  | in TAP1/TAP2iso to a greater extent |  |
| TVDNKTRYE [Peptide TVDNKTRYE] | equal efficiency | markedly greater extent in TAP1/TAP2 transfectants | transported to a greater extent by TAP1/TAP2; also recorded: transported more efficiently in the TAP1/TAP2 transfectant |
